“And” between values parts separate entries of the source, which are not always exact repeats. Equal entries are not always repeated. “Also recorded” adds a separate entry of the source. Each block holds one molecule with its values, some of them ahead of it.
Columns and labels:
3D PT tissues [1] = assay: Passive permeability (Papp) of Lucifer yellow across 3D PT tissues; format: in vitro ADME, human; details: for Papp: Lucifer yellow 250 μM, 1 h, individual tissues 1-6 and average
Procedure: Tissues were then dosed with 250 μM Lucifer yellow (Thermo Fisher, Carlsbad, Calif.) to the apical compartment and fresh assay buffer in the basolateral (receiver) compartment. Following incubation for 1 h at 37° C., samples were taken from both the apical and basolateral compartments. Fluorescence in each sample was measured on a BMG plate reader with an excitation filter of 490 nm and an emission filter of 540 nm (BMG Labtech, Cary, N.C.) and normalized to a standard curve for quantification. Papp was calculated with equation 1, where V represents the volume of Lucifer yellow solution, T is the duration of the incubation, D0 is the concentration of Lucifer yellow applied to the cells, and A is the growth area of the Transwell® insert. Papp=(V/A×D0))*(ΔD/ΔT) Equation 1: […]

SGLT2 = target: T1, SGLT2 (Homo sapiens, UniProt P31639); assay: Glucose (2-DG) uptake colorimetric assay in 3D PT tissues; format: cell-based
T1 construct: SGLT2 protein expression was detected primarily at the apical surface of RPTEC on 3D PT tissues; endogenous in cells; host or cells: bioprinted 3D PT tissue: primary human RPTEC on an interstitium of primary human renal fibroblasts and HUVEC
T1 sequence (P31639 1-672): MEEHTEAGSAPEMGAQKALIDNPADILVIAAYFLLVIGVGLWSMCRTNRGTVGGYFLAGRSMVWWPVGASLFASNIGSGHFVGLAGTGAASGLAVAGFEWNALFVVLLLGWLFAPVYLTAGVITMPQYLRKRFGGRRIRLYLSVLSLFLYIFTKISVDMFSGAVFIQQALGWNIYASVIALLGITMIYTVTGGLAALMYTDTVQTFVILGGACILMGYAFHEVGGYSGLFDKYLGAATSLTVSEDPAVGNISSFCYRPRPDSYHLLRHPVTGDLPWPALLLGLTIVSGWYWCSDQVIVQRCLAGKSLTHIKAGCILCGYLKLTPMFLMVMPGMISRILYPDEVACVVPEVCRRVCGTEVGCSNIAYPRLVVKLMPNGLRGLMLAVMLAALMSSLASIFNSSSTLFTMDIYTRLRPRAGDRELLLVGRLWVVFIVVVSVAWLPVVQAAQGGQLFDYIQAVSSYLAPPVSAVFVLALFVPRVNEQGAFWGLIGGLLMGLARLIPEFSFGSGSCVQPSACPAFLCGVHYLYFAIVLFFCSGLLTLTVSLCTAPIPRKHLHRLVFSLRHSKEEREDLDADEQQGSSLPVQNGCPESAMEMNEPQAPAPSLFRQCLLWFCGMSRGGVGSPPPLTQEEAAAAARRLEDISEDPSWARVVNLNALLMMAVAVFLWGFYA
Procedure: Glucose uptake in 3D PT tissues was detected and quantified according to the manufacturer's protocol (Abeam, Cambridge, Mass.). Insulin-Transferrin-Selenium (Gibco, Carlsbad, Calif.) was used to stimulate glucose uptake and canagliflozin (Santa Cruz Biotech, Dallas, Tex.) was used to inhibit SGLT2 function. […] Tissues were then pretreated with 1X insulin or 500 μM canagliflozin for 20 minutes, followed by addition of 1 mM 2-deoxyglucose. Tissues were washed extensively with PBS and lysed in extraction buffer in Precellys® lysis tubes (Precellys, Rockville, Md.).

P-gp = target: T2, P-gp (Homo sapiens, UniProt P08183); assay: Rhodamine 123 transport / P-gp efflux in 3D PT tissues; format: cell-based; details: image quantification, 2 h, 5 μM zosuquidar
T2 construct: P-gp protein expression was detected at the apical surface of the RPTEC cells in the 3D PT model; endogenous in cells; host or cells: bioprinted 3D PT tissue: primary human RPTEC on an interstitium of primary human renal fibroblasts and HUVEC
Procedure: Both apical and basolateral sides of tissues were then pre-incubated for 20 min at 37° C. in assay buffer in the presence or absence of 5 μM zosuquidar (Sigma Aldrich, St. Louis, Mo.). Following pre-treatment, tissues were dosed on the basolateral side with 1 μM rhodamine 123 (Molecular Probes, Eugene, Oreg.) with or without 5 μM zosuquidar for 2h at 37° C. After incubation, the tissues were washed with cold assay buffer, fixed with 2% PFA, and cryosectioned. Images were captured at the same exposure time across all conditions. Fluorescence intensity, corrected for background and relative area, was calculated in Image J (National Institutes of Health, Bethesda, Md.) and graphed as fold change relative to control using GraphPad Prism® software (GraphPad, San Diego).

ACE = target: T3, ACE (Homo sapiens, UniProt P12821); assay: ACE function: conversion of angiotensin I to angiotensin II (ELISA); format: cell-based; details: after 5 ng/ml human angiotensin I for 24 h
T3 construct: ACE protein was detected in both conditioned media and tissue lysates, with higher detection in the tissue lysates; endogenous in cells; host or cells: bioprinted 3D PT tissue: primary human RPTEC on an interstitium of primary human renal fibroblasts and HUVEC
Procedure: To evaluate ACE enzyme function, 3D PT tissues were treated for 24 h with 5 ng/ml human angiotensin I (Abeam, Cambridge, Mass.) and angiotensin II was then detected using a competitive ELISA kit from Sigma per the manufacturer's instructions (Sigma-Aldrich, St. Louis, Mo.). Plates were read at 450 nm within 30 minutes of addition of the stop solution (BMG Labtech, Cary, N.C.). The concentration of angiotensin II in the test samples was determined by comparison to the standard curve using GraphPad Prism® software (GraphPad, San Diego, Calif.).

[2] = tested on: ExVive™ Human Kidney Tissue; assay: GGT activity in ExVive Human Kidney Tissue; format: cell-based; details: 0.37-10 ng/ml daily for seven days
Procedure: (§1) As described in this present disclosure, the ExVive™ Human Kidney Tissue (Organovo, San Diego, Calif.) is a fully human three-dimensional (3D), bioprinted tissue comprised of an apical layer of polarized primary renal proximal tubule epithelial cells (RPTECs) supported by a collagen IV-rich tubulointerstitial interface of primary renal fibroblasts and endothelial cells. As renal fibrosis is a common downstream effect of drug-induced injury, the ExVive™ Human Kidney Tissue was treated with Transforming Growth Factor R (TGFI3 or TGFbeta), a key player of the fibrotic response, for purposes of evaluating tubulointerstitial fibrosis. Thus, to induce renal fibrosis, a healthy ExVive™ Human Kidney Tissue was treated with TGFI3, a key player of the fibrotic response. In particular, each healthy ExVive™ Human Kidney Tissue was dosed daily for seven days with vehicle control, 0.37 ng/ml TGFβ, 1.1ng/m1 TGFβ, 3.3 ng/ml TGFβ, or 10 ng/m1 TGFβ, respectively. Subsequently, after the ExVive™ Human Kidney Tissue was treated with TGFβ, an assessment of the viability and epithelial cell functions of this ExVive™ Human Kidney Tissue was conducted. […] Data shown is the average of 3 tissue samples per condition and is represented as the fold change relative to the vehicle control. *p<0.05; ***p<0.001 for each condition compared to vehicle control.

[3] = tested on: ExVive™ Human Kidney Tissue; assay: Resazurin conversion in ExVive Human Kidney Tissue; format: cell-based; details: 0.37-10 ng/ml daily for seven days
Procedure: as §1

[4] = tested on: ExVive™ Human Kidney Tissue; assay: Fibrosis-related gene expression by semi-quantitative RTPCR; format: cell-based; details: 0.37-10 ng/ml daily for seven days
Procedure: Fibrosis-related gene expression was also assessed on this ExVive™ Human Kidney Tissue treated with TGFβ. […] Data shown is the average of 3 tissue samples per condition. *p<0.0001 for each condition compared to vehicle control.

[5] = tested on: ExVive™ Human Kidney Tissue; assay: ECM deposition (Gomori's Trichrome, Sirius red) in ExVive tissue; format: cell-based; details: 0.37-10 ng/ml daily for seven days
Source text: Data represents the average of 4 technical replicates per tissue, 3 tissues per condition and is represented as the fold change relative to the vehicle control following normalization to total protein content as measured by Fast Green staining. *p<0.05 for each condition compared to vehicle control.

3D PT tissues [6] = assay: GGT activity of 3D PT tissues (epithelial function); format: cell-based, human; details: 5 μM cisplatin, daily for 7 days
Procedure: GGT activity was measured according to the manufacturer's protocol (Sigma Aldrich, St. Louis, Mo.). Tissues were washed twice with DPBS and lysed in GGT assay buffer in a Precellys® lysis tube (Precellys, Rockville, Md.). Lysate was assessed for GGT activity by comparison to a standard curve integration of absorbance normalized for volume and duration of incubation period at 37° C. using GraphPad Prism® software (GraphPad, San Diego, Calif.). Data shown represent the average GGT activity in mIU/ml for analysis of GGT function over time, or percent relative to vehicle for toxicity studies.

3D PT tissues [7] = assay: H&E histology of 3D PT tissues; details: daily for 7 days; 5 μM cisplatin, 1 mM cimetidine
Procedure: 3D PT were fixed overnight in 2% paraformaldehyde (Electron Microscopy Sciences, Hatfield, Pa.). Tissues were oriented for transverse sectioning by pre-embedding in HistoGel™ (Thermo Fisher, Carlsbad, Calif.) and were then dehydrated and infiltrated with paraffin by automated processing on a Tissue-Tek VIP® tissue processing system (Sakura Finetek USA, Torrance, Calif.). Tissues were sectioned at 5 μM on a Leica® Reichert-Jung® Histocut microtome (Leica Biosystems, Buffalo Grove, Ill.). Hematoxylin and eosin (H&E) or Gomori's trichrome (TCM) stains were generated using a Leica® Autostainer XL (Leica Biosystems, Buffalo Grove, Ill.) according to manufacturer's instructions. Immunohistochemistry was performed as previously described (King et al., 2013) using the primary antibodies in Table 1. Following overnight incubation with primary antibodies at 4° C., sections were stained with AlexaFluor®-conjugated secondary antibodies (Thermo Fisher, Carlsbad, Calif.) at 1:200 dilution. For P-gp and SGLT2 detection, tyramide signal amplification was performed according to the manufacturer's instructions (Thermo Fisher, Carlsbad, Calif.). Slides were counterstained and mounted with FluoroGel II with DAPI (Electron Microscopy Sciences, Hatfield, Pa.). H&E and TCM images were acquired on a Zeiss® Axioskop with Zeiss® Zen software (Zeiss Microscopy, Thornwood, NY). […]

3D PT tissues [8] = assay: PCNA staining, RPTEC proliferation in 3D PT tissues; format: cell-based, human; details: daily for 7 days
Procedure: 3D PT were fixed overnight in 2% paraformaldehyde (Electron Microscopy Sciences, Hatfield, Pa.). Tissues were oriented for transverse sectioning by pre-embedding in HistoGel™ (Thermo Fisher, Carlsbad, Calif.) and were then dehydrated and infiltrated with paraffin by automated processing on a Tissue-Tek VIP® tissue processing system (Sakura Finetek USA, Torrance, Calif.). Tissues were sectioned at 5 μM on a Leica® Reichert-Jung® Histocut microtome (Leica Biosystems, Buffalo Grove, Ill.). Hematoxylin and eosin (H&E) or Gomori's trichrome (TCM) stains were generated using a Leica® Autostainer XL (Leica Biosystems, Buffalo Grove, Ill.) according to manufacturer's instructions. Immunohistochemistry was performed as previously described (King et al., 2013) using the primary antibodies in Table 1. Following overnight incubation with primary antibodies at 4° C., sections were stained with AlexaFluor®-conjugated secondary antibodies (Thermo Fisher, Carlsbad, Calif.) at 1:200 dilution. For P-gp and SGLT2 detection, tyramide signal amplification was performed according to the manufacturer's instructions (Thermo Fisher, Carlsbad, Calif.). Slides were counterstained and mounted with FluoroGel II with DAPI (Electron Microscopy Sciences, Hatfield, Pa.). H&E and TCM images were acquired on a Zeiss® Axioskop with Zeiss® Zen software (Zeiss Microscopy, Thornwood, NY). Immunofluorescent images were acquired on a Zeiss® Axio® Imager A2 with Zeiss® Zen software.

3D PT tissues [9] = assay: LDH release from 3D PT tissues; format: cell-based, human; details: 5 μM cisplatin alone, treatment day 5 (peak)
Procedure: Lactate dehydrogenase (LDH) activity assay was performed according to the manufacturer's protocol (Abcam, Cambridge, Mass.). Conditioned media was collected from 3D PT tissues and further diluted in fresh media to ensure that the LDH activity of the sample was within the linear range of the assay. Samples were measured on a microplate reader (BMG Labtech, Cary, N.C.). LDH activity was determined by standard curve integration of absorbance normalized for volume and duration using GraphPad Prism® software (GraphPad, San Diego, Calif.). Data shown represent the fold change in LDH activity relative to vehicle control for each day of sampling.

[10] = humans, Zhang and Zhou, 2012; cited from earlier work
3D PT tissues [11] = details: OCT2 inhibition by cimetidine
Source text: 3D PT Novo View™ Tissues were fabricated as described (Nguyen et al., 2016). Briefly, cultured renal fibroblasts and HUVEC were combined in a 50:50 ratio and resuspended in NovoGel® Bio-Ink, and then bioprinted onto 0.4 μm Transwell® clear polyester membrane inserts in a 24-well plate (Coming Costar, Coming, NY) using a NovoGen Bioprinter® Instrument (Organovo Inc., San Diego, Calif.) with previously established protocols (Forgacs et al., 2012; Murphy et al., 2015; Nguyen et al., 2016). Following bioprinting, NovoView′ Tissues were cultured in NovoView™ Kidney Media (Organovo, San Diego, Calif.). On culture day 3, primary RPTEC cells were added to the tissues in a suspension of 1.25×10^6 cells/ml in RPTEC media. […]
Assessment of metabolic activity as a surrogate for tissue viability and health was performed by alamarBlue™ assay according to the manufacturer's protocol (Thermo Fisher, Carlsbad, Calif.). […] After incubation, the alamarBlue′ solution was removed and fluorescence was measured on a BMG Labtech POLARstar® Omega reader (Cary, N.C.) with an excitation filter of 560 nm and an emission filter of 590 nm. Graphed data represent the percent relative fluorescence units (RFU) compared to blank for metabolic activity over time, or the percent RFU compared to vehicle control for toxicity studies.

T3 sequence (P12821 30-1306): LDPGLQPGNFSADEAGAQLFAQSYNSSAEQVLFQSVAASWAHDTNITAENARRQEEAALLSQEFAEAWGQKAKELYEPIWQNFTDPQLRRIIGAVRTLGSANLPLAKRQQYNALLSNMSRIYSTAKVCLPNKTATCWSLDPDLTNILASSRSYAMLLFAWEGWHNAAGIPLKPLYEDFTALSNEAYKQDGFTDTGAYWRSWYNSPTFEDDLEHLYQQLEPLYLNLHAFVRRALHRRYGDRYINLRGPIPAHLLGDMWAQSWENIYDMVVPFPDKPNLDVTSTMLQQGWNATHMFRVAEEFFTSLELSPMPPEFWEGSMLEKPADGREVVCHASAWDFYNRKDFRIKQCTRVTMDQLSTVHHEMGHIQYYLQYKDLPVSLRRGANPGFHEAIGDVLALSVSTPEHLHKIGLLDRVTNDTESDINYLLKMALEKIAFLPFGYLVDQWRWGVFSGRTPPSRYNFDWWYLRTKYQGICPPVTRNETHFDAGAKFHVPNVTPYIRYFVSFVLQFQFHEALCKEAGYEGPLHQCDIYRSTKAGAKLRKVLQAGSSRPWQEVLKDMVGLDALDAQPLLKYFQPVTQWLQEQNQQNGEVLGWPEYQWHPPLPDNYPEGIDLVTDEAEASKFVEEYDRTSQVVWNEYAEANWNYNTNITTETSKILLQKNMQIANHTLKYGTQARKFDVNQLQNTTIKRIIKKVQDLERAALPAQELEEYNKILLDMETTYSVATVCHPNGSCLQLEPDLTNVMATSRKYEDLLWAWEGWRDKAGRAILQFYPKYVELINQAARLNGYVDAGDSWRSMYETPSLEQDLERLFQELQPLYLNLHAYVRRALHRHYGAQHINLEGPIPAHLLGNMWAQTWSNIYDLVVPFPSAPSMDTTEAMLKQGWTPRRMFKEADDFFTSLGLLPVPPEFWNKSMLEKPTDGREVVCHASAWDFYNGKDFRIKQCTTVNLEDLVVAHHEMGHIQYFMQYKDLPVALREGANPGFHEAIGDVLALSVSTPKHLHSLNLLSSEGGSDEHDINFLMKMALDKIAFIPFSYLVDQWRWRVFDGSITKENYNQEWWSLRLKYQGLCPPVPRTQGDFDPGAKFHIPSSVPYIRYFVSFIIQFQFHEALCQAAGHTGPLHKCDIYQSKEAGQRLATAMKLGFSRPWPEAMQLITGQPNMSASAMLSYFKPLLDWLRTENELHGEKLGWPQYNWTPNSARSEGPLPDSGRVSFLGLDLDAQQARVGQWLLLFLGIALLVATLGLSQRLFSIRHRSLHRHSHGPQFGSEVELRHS
T2 sequence (P08183 whole entry): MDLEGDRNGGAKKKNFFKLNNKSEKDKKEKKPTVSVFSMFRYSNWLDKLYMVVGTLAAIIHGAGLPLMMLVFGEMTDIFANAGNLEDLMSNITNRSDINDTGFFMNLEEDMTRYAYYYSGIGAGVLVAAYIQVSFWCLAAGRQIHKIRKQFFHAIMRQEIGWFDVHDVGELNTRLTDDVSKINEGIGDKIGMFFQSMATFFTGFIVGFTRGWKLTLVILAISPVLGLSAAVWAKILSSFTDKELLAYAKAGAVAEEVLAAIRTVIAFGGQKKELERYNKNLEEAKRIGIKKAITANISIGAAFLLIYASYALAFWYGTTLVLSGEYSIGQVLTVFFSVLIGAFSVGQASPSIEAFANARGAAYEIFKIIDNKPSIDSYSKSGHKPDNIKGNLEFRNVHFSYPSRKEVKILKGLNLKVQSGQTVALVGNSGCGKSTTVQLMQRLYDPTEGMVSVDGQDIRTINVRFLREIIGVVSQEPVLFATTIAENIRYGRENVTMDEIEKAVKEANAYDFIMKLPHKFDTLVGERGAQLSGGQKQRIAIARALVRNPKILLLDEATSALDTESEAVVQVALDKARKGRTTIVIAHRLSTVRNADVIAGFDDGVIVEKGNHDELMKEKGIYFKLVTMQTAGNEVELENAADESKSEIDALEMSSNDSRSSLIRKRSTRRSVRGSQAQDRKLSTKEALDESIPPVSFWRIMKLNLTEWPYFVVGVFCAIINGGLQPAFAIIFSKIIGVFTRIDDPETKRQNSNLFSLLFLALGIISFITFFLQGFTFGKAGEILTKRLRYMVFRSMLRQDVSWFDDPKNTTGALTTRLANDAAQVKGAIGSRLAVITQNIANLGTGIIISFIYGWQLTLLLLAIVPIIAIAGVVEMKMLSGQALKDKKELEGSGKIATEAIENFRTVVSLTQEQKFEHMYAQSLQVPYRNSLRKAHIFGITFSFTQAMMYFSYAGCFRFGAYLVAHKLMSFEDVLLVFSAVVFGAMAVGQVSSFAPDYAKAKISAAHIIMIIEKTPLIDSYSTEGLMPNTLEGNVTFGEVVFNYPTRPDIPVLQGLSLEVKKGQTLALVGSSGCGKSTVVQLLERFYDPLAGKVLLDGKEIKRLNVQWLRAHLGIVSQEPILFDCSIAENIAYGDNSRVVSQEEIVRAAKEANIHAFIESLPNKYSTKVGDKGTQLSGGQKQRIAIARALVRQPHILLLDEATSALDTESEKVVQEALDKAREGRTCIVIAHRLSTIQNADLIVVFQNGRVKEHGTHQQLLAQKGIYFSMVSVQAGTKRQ

Molecule: TGFβ
GGT activity (epithelial cell function) [2]: Statistically significant reduction in RPTEC function was detected with higher doses; also recorded: loss of epithelial cell function at the highest dose
Resazurin conversion (overall tissue metabolic activity) [3]: No statistically significant differences
fibrosis-related gene expression (COL1A1, CTGF, FAP, PDGFRB) [4]: induction of the fibrotic markers; also recorded: increase in the expression of fibrosis-related genes
tissue thickness and extracellular matrix deposition [5]: induces tissue thickening and increased extracellular matrix deposition; also recorded: extensive ECM deposition in the interstitium

Molecule: N.N.[Cl][Pt][Cl] [cisplatin]
reduction in GGT activity (3D PT tissues [6]): ~50%
epithelial morphology (H&E) (3D PT tissues [7]): more squamous morphology and loss of nuclei
RPTEC proliferation (PCNA) (3D PT tissues [8]): dose-dependent proliferative response; also recorded: dose-dependent increase in proliferating RPTEC
LDH release, increase over vehicle controls (3D PT tissues [9]): 3 fold

Molecule: insulin: Insulin-Transferrin-Selenium (Gibco) used to stimulate glucose uptake
increase in intracellular 2-DG (SGLT2; tissues in normal tissue media): 4 fold
increase in glucose uptake (SGLT2; tissues starved overnight): 8 fold

Molecule: CN/C(=N/CCSCc1nc[nH]c1C)NC#N [cimetidine]
RPTEC proliferation (PCNA) (3D PT tissues [8]): low levels of RPTEC proliferation
urinary cystatin C following cisplatin administration [10]: decreased urinary cystatin C
protection against cisplatin-induced loss of viability and epithelial function (3D PT tissues [11]): successfully protected

Further lines, with some results ahead:

Papp (3D PT tissues [1]; mean): 2.97 ± 0.17 ×10^−6 cm/s
average Papp (3D PT tissues [1]; Lucifer yellow, 3D PT tissues): 2.97 ×10⁻⁶ cm/s
Molecule: Lucifer yellow
Papp (3D PT tissues [1]): 2.93e-06 cm/s and 2.63e-06 cm/s and 2.73e-06 cm/s and 2.66e-06 cm/s and 3.74e-06 cm/s and 3.11e-06 cm/s

decrease of insulin-induced intracellular 2-DG (SGLT2; normal tissue media, co-administration with insulin, 500 μM canagliflozin): 50%
Molecule: Cc1ccc([C@@H]2O[C@H](CO)[C@@H](O)[C@H](O)[C@H]2O)cc1Cc1ccc(-c2ccc(F)cc2)s1 [canagliflozin]
effect on insulin-induced glucose uptake (SGLT2; tissues starved overnight, 500 μM canagliflozin): significantly reduced by canagliflozin to levels indistinguishable from the control tissues

increase in fluorescence over control tissues (P-gp): 4 fold
Molecule: rhodamine 123 [R123]

angiotensin II detected (ACE): 0.4 pg/mL
Molecule: angiotensin I: human angiotensin I (Abcam), ACE substrate (DRVYIHPFHL; Angiotensin-1; UniProt P01019 25-34, looked up)

From US11268950B2, “Use of engineered renal tissues in assays” (Organovo, Inc., priority 2016, dated 2022)
